Values quoted from earlier work as cited in PMC7199283 (Antiviral research, 2020).

System: HBV
Details: ref Hu et al., 2013

CC(C)c1ccc(O)c(=O)c(O)c1 [β-thujaplicinol]
accumulation of RNA:DNA heteroduplexes within HBV capsids: dose-dependent accumulation of RNA:DNA heteroduplexes
